Results reported in patent US20250034182A1, “PHOSPHOLIPID COMPOUNDS AND METHODS OF MAKING AND USING THE SAME” (priority 2021, published 2025).

Columns and labels:
Type in all cases: cell-based
[1] = RSV NHBE CC50 384 V2 (per Ex. U); conditions: human
[2] = RSV HEP2-CC50-384-V2 (per Ex. V); conditions: human
[3] = system: Respiratory syncytial virus recombinant with luciferase (RSV-Luc5) in HEp-2 cells; experiment: HEp-2 RSV-Luc5 384-well assay (EC50 RSVFLUC Hep2-384 v2, Example V); conditions: human respiratory syncytial virus, HEp-2, 72 h, read-out: RSV Hep-2 FLuc EC50 (v2) (nM) (per Ex. V)
Method in brief: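 HEp-2 cells (4,000/well) infected with RSV-Luc5 at MOI 0.5 in DMEM/10% FBS with compound, 10-point 1:3 dilutions, 3 days at 37 °C. Replication read by One-Glo luminescence, normalized to remdesivir (0%) and DMSO (100%). EC50 from non-linear regression as concentration giving 50% reduction.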

[4] = system: Human Rhinovirus 14 (HRV14) in H1-HeLa cells; experiment: H1-HeLa HRV-CTG EC50, HRV14 (Example Z); conditions: Rhinovirus B, HRV14, 96 h, MOI 1.0, 4 days, Celltiter-Glo, read-out: HRV14 HELA EC50 (nM) (per Ex. Z)
Method in brief: (§1)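 H1-HeLa cells (5,000/well) in DMEM with 2% FBS were infected with HRV1B, HRV14 or HRV16 at MOI 0.5, 1.0 and 0.25, respectively, with 10-point 1:3 compound dilutions. After 4 days at 37 °C, viability was read by CellTiter-Glo luminescence. EC50 was the concentration reducing viral replication by 50%, normalized to rupintrivir and DMSO controls.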

[5] = system: Human Rhinovirus 16 (HRV16) in H1-HeLa cells; experiment: H1-HeLa HRV-CTG EC50, HRV16 (Example Z); conditions: Rhinovirus A, HRV16, 96 h, MOI 0.25, 4 days, Celltiter-Glo, read-out: HRV 16 HELA EC50 (nM) (per Ex. Z)
Method in brief: as §1

Row | SMILES | CC50 at 3 days [1] [nM] | CC50 at 3 days [2] [nM] | EC50 [3] [nM] | EC50 [4] [nM] | EC50 [5] [nM]
1 | CCCCCCCCCCCCCCCC[C@@H](COP(=O)(O)OC[C@@]1(C#N)O[C@@H](c2ccc3c(N)ncnn23)[C@H](O)[C@@H]1O)OCc1cc(F)cc(C#N)c1 [Compound 79, ((2R,3S,4R,5S)-5-(4-aminopyrrolo[2,1-f][1,2,4]triazin-7-yl)-2-cyano-3,4-dihydroxytetrahydrofuran-2-yl)methyl ((S)-2-((3-cyano-5-fluorobenzyl)oxy)octadecyl) hydrogen phosphate] | 2100 | 38100 | 1090 | 38 | 70
2 | CCCCCCCCCCCCCCCCCCC[C@H](COP(=O)(O)OC[C@@]1(C#N)O[C@@H](c2ccc3c(N)ncnn23)[C@H](O)[C@@H]1O)Oc1ccc(C#N)c(OC(C)C)c1 [Compound 38, ((2R,3S,4R,5S)-5-(4-aminopyrrolo[2,1-f][1,2,4]triazin-7-yl)-2-cyano-3,4-dihydroxytetrahydrofuran-2-yl)methyl ((R)-2-(4-cyano-3-isopropoxyphenoxy)henicosyl) hydrogen phosphate] | 7990 | 35300 | 212 | 28 | 29
3 | CCCCCCCCCCCCCCCCCCOC[C@H](COP(=O)(O)OC[C@@]1(C#N)O[C@@H](c2ccc3c(N)ncnn23)[C@H](O)[C@@H]1O)OCc1ccc(C#N)c(-n2cncn2)c1 [Compound 16, ((2R,3S,4R,5S)-5-(4-aminopyrrolo[2,1-f][1,2,4]triazin-7-yl)-2-cyano-3,4-dihydroxytetrahydrofuran-2-yl)methyl ((R)-2-((4-cyano-3-(1H-1,2,4-triazol-1-yl)benzyl)oxy)-3-(octadecyloxy)propyl) hydrogen phosphate] | 4610 | > 41500 | 36 | 11 | 10
4 | CCCCCCCCCCCCCCCCCCOC[C@H](COP(=O)(O)OC[C@@]1(C#N)O[C@@H](c2ccc3c(N)ncnn23)[C@H](O)[C@@H]1O)OCc1cc(F)cc(C#N)c1 [Compound 1, ((2R,3S,4R,5S)-5-(4-aminopyrrolo[2,1-f][1,2,4]triazin-7-yl)-2-cyano-3,4-dihydroxytetrahydrofuran-2-yl)methyl ((R)-2-((3-cyano-5-fluorobenzyl)oxy)-3-(octadecyloxy)propyl) hydrogen phosphate] | 2400 | > 31200 | 229 | 8 | 8
5 | CCCCCCCCCCCCCCCCCCCC[C@@H](COP(=O)(O)OC[C@@]1(C#N)O[C@@H](c2ccc3c(N)ncnn23)[C@H](O)[C@@H]1O)OCc1cc(F)cc(C#N)c1 [Compound 70, ((2R,3S,4R)-5-(4-aminopyrrolo[2,1-f][1,2,4]triazin-7-yl)-2-cyano-3,4-dihydroxytetrahydrofuran-2-yl)methyl ((S)-2-((3-cyano-5-fluorobenzyl)oxy)docosyl) hydrogen phosphate] | 3950 | 43500 | 1770 | 162 | 114
6 | CCCCCCCCCCCCCCCCCCC[C@H](COP(=O)(O)OC[C@@]1(C#N)O[C@@H](c2ccc3c(N)ncnn23)[C@H](O)[C@@H]1O)OCc1cc(F)cc(C#N)c1 [Compound 25, ((2R,3S,4R,5S)-5-(4-aminopyrrolo[2,1-f][1,2,4]triazin-7-yl)-2-cyano-3,4-dihydroxytetrahydrofuran-2-yl)methyl ((R)-2-((3-cyano-5-fluorobenzyl)oxy)henicosyl) hydrogen phosphate] | 31000 | > 50000 | 2920 | 103 | 99
7 | CCCCCCCCCCCCCCOC[C@H](COP(=O)(O)OC[C@@]1(C#N)O[C@@H](c2ccc3c(N)ncnn23)[C@H](O)[C@@H]1O)Oc1cc(C#N)ccn1 [Compound 69, ((2R,3S,4R)-5-(4-aminopyrrolo[2,1-f][1,2,4]triazin-7-yl)-2-cyano-3,4-dihydroxytetrahydrofuran-2-yl)methyl ((R)-2-((4-cyanopyridin-2-yl)oxy)-3-(tetradecyloxy)propyl) hydrogen phosphate] | 3290 | > 50000 | 674 | 106 | 109
